Results taken from PubChem BioAssay (NCI).
Several values for one entry are separate records, joined by “and”; a condition that tells them apart may be missing. Equal values may be shown once.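 Cells were grown in 96-well plates and exposed to each compound for 48 hours at five concentrations; endpoints were interpolated linearly between bracketing concentrations, or set to the highest concentration if not reached. The concentration for 50% growth inhibition is given as GI50. TGI: total growth inhibition.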

Key:
Experiment in all cases: NCI-60 cell line screen, 48 h
K-562 leukemia = test system: K-562 leukemia
HCC-2998 colon = test system: HCC-2998 colon
SW-620 colon = test system: SW-620 colon
ACHN renal = test system: ACHN renal
U251 CNS = test system: U251 CNS
UACC-62 melanoma = test system: UACC-62 melanoma
SNB-75 CNS = test system: SNB-75 CNS
M14 melanoma = test system: M14 melanoma
NCI/ADR-RES ovarian = test system: NCI/ADR-RES ovarian
SF-539 CNS = test system: SF-539 CNS

Compound	GI50 (K-562 leukemia)	TGI (K-562 leukemia)	GI50 (HCC-2998 colon)	TGI (HCC-2998 colon)	GI50 (SW-620 colon)	TGI (SW-620 colon)	GI50 (ACHN renal)	TGI (ACHN renal)	GI50 (U251 CNS)	TGI (U251 CNS)	GI50 (UACC-62 melanoma)	TGI (UACC-62 melanoma)	GI50 (SNB-75 CNS)	TGI (SNB-75 CNS)	GI50 (M14 melanoma)	TGI (M14 melanoma)	GI50 (NCI/ADR-RES ovarian)	TGI (NCI/ADR-RES ovarian)	GI50 (SF-539 CNS)	TGI (SF-539 CNS)
CCCCCCC/C=C/[C@H]1O[C@]2(O)C(=O)C=C3C[C@@H](O[C@@H]4O[C@H](CO)[C@@H](O)C(O)[C@@H]4O)C[C@@H]3[C@H]2C=C1C (stereo partly specified)	1.04 µM	3.55 µM	4.93 µM	9.82 µM	1.14 µM	5.49 µM	1.13 µM	4.28 µM	1.1 µM	4.49 µM	1.79 µM	6.96 µM	1.24 µM	5.93 µM	1.58 µM	6.35 µM	1.26 µM	14 µM	1.32 µM	5.12 µM
O=C(c1ccco1)c1c(C(F)(F)F)nc2ccc(C(F)(F)F)cc2[n+]1[O-]	> 73.8 µM	> 100 µM	57.6 µM	> 100 µM	> 59.1 µM	> 100 µM	23.4 µM	60 µM	25.9 µM	61.5 µM	44.2 µM	> 100 µM	16.9 µM	36.4 µM	35.8 µM	> 100 µM	44.2 µM	> 100 µM	18.3 µM	34.5 µM
Nc1ccccc1NC(=O)c1ccc(CN2CCC/C(=C\c3ccccn3)C2=O)cc1	0.414 µM	> 100 µM	1.86 µM	20.2 µM	0.745 µM	> 100 µM	1.26 µM	> 100 µM	1.83 µM	> 100 µM	0.411 µM	2.35 µM	1.06 µM	6.05 µM	1.05 µM	> 100 µM	1.33 µM	> 100 µM	1.58 µM	> 100 µM
C[C@]12CC[C@H]3[C@@H](CCC4=CC(=O)CC[C@@]43C)[C@@H]1CC[C@@H]2C(=O)COS(=O)(=O)c1ccc(Br)cc1		31.7 µM		8.74 µM		> 44.5 µM		27.6 µM		26.2 µM		37.8 µM		41.8 µM		23.8 µM		> 100 µM		> 60.7 µM
NC(=S)N/N=C/c1ccc(N)cn1		> 10 µM		> 10 µM		> 10 µM		7.65 µM		> 10 µM		> 10 µM		> 10 µM		> 7.38 µM		> 10 µM		2.2 µM
COc1cc2oc(-c3ccc(O)cc3O)c(CC=C(C)C)c(=O)c2c(O)c1/C=C/C(C)C		4.64 µM		4.6 µM		6.03 µM		8.12 µM		6.12 µM		10.4 µM		9.04 µM		3.56 µM		8.24 µM		10.4 µM
NC1CCC(Nc2nc(NCc3cc(Cl)ccc3O)c3ncn(C4CCCC4)c3n2)CC1 (stereo unspecified)	0.175 µM	0.461 µM	0.201 µM	0.603 µM	0.15 µM	0.922 µM	0.183 µM	0.527 µM	0.14 µM	0.444 µM	0.149 µM	0.335 µM	0.114 µM	0.33 µM	0.162 µM	0.33 µM	0.156 µM	0.316 µM	0.166 µM	0.341 µM
C/C(=N\NC(=S)N1CCN(C2CCCCCC2)CC1)c1ccccn1	< 0.001 µM	1.67 µM and 0.97 µM	1.4 µM	3.3 µM and 2.08 µM	0.407 µM	3.83 µM and 1.91 µM	0.00121 µM	2.7 µM	< 0.001 µM	3 µM and 2.1 µM		1.95 µM		5.09 µM	< 0.001 µM	2.85 µM and 1.2 µM		0.676 µM	0.0294 µM	2.5 µM and 2.01 µM
CN(C)CCC=C1c2ccccc2C(C)(C)c2ccccc21	3 µM	19 µM	4.25 µM	15 µM	13.3 µM	26.2 µM	14.7 µM	27.9 µM	12.2 µM	26.1 µM	11.6 µM	27 µM	2.86 µM	17.6 µM	2.94 µM	9.78 µM	17 µM	34.1 µM	10.4 µM	22.2 µM
CC1=C(C(=O)Nc2ccc3[nH]ncc3c2)C(c2ccc(Cl)c(Cl)c2)CC(=O)N1 (stereo unspecified)	> 25 µM	> 25 µM	> 25 µM	> 25 µM	> 20.7 µM	> 25 µM	> 25 µM	> 25 µM	> 25 µM	> 25 µM	18.1 µM	> 25 µM	2.25 µM	> 19.1 µM	> 25 µM	> 25 µM	> 25 µM	> 25 µM	> 16.8 µM	> 25 µM
C=C1COC(O)(C2OCOC(C3CC(=O)NC(=O)C3)C2O)C1C (stereo unspecified)	0.00241 µM	0.0411 µM	0.00218 µM	0.0174 µM and 0.0244 µM	0.00288 µM	0.042 µM and 0.142 µM	0.00352 µM	0.198 µM and 0.0355 µM	0.00275 µM	0.0376 µM and 0.0739 µM	0.00275 µM and 0.0134 µM	0.0247 µM and 0.131 µM	0.00332 µM	0.0336 µM and 0.0195 µM	0.00323 µM	0.017 µM and 0.0232 µM		0.163 µM	0.00165 µM	0.0064 µM and 0.00602 µM
c1ccc(CN2CCC3(CC2)SSC2(CCN(Cc4ccccc4)CC2)SS3)cc1		> 100 µM		> 100 µM		> 100 µM		> 100 µM		> 100 µM		> 100 µM		> 100 µM		> 100 µM		> 100 µM		> 100 µM
C=C1CCC2C3(C)COC(c4c(OC)cccc4OC)OC3CCC2(C)C1C/C=C1/C(=O)OCC1O (stereo unspecified)	1.41 µM	6.28 µM	4.18 µM	11.2 µM	1.71 µM	3.23 µM	2.38 µM	5.85 µM	1.91 µM	4.36 µM	3.32 µM	15 µM	2.55 µM	14.5 µM	2.96 µM	9.01 µM	2.65 µM	7.03 µM	2.55 µM	6.35 µM
CCCCCCCCCCCCCCCC(=O)N[C@H](/C=C/[C@H](O)CCCCCCCCCCCCC)CO	> 100 µM	> 100 µM	> 100 µM	> 100 µM	> 100 µM	> 100 µM	> 100 µM	> 100 µM	> 100 µM	> 100 µM	> 100 µM	> 100 µM	> 100 µM	> 100 µM	> 100 µM	> 100 µM	> 100 µM	> 100 µM	> 100 µM	> 100 µM
CCCC[n+]1c(/C=C\c2c(OC)cc(OC)cc2OC)ccc2ccccc21	0.294 µM	> 38.6 µM	0.946 µM	7.83 µM	0.814 µM	10 µM	3.01 µM	11.8 µM	0.353 µM	3.66 µM	0.777 µM	2.34 µM	1.57 µM	8.21 µM	1.18 µM	2.81 µM	15.9 µM	> 71.9 µM	1.44 µM	4.65 µM
Cc1cccc2nc3cccc(C(=O)NCCNCCNCCNC(=O)c4cccc5nc6cccc(C)c6nc45)c3nc12	< 0.01 µM	9.37 µM	0.0416 µM	0.837 µM	< 0.01 µM	3.5 µM	< 0.01 µM	10.9 µM	< 0.01 µM	1.04 µM	0.0137 µM	2.01 µM	0.181 µM	1.44 µM	< 0.0241 µM	1.7 µM	0.296 µM	> 100 µM	< 0.0254 µM	4.06 µM
O=C(N=Nc1c(O)[nH]c2ccccc12)c1oc2ccccc2c1CN1CCN(c2ccccc2)CC1	1.98 µM	> 50 µM	6.83 µM	32 µM	1.5 µM	7.47 µM	1.02 µM	2.53 µM	1.97 µM	8.67 µM	2.38 µM	10 µM	1.04 µM	4.48 µM	2.07 µM	8.83 µM	1.29 µM	4.68 µM	2.5 µM	8.53 µM
O=c1c2c(c3ccccc3n1-c1ccccc1)NC(=S)NC2c1ccc(Cl)cc1 (stereo unspecified)	4.04 µM	> 100 µM	2.2 µM	16.3 µM	6.97 µM	49.9 µM	3.92 µM	> 100 µM	2.04 µM	24.8 µM	1.49 µM	10.6 µM	3.54 µM	22.6 µM	3.19 µM	16.1 µM	10.1 µM	> 100 µM	2.37 µM	42.6 µM
C[N+](C)(CCCCCC[N+](C)(C)CCCN1C(=O)c2cc3ccccc3cc2C1=O)CCCN1C(=O)c2cc3ccccc3cc2C1=O	> 37.5 µM	> 37.5 µM	> 37.5 µM	> 37.5 µM	> 37.5 µM	> 37.5 µM	> 37.5 µM	> 37.5 µM	> 37.5 µM	> 37.5 µM	> 37.5 µM	> 37.5 µM	> 37.5 µM	> 37.5 µM	> 37.5 µM	> 37.5 µM	> 37.5 µM	> 37.5 µM	> 37.5 µM	> 37.5 µM
